Measured values reported in patent US20250387419A1, “PARP INHIBITOR-RESISTANT PATIENT TREATED WITH TH-302” (ASCENTAWITS PHARMACEUTICALS, LTD., priority 2021, published 2025).
“Also recorded” adds a separate entry of the source.

What was measured:
[1] = Safety (body weight) in Capan-1 CDX model (3.2); format: in vivo
Procedure: Protocol: Nude BALB/c mice were subcutaneously inoculated with human pancreatic cancer Capan-1 cells, establishing a human pancreatic cancer subcutaneous xenograft model. The mice were divided into 7 groups, 6 in each group: 100 mg/kg of the test drug olaparib as a monotherapy (Group 2); 50 mg/kg of TH-302 as a monotherapy (Group 3, QD); 100 mg/kg of TH-302 as a monotherapy (Group 4); 50 mg/kg of TH-302 as a monotherapy (Group 5, QW); 25 mg/kg of TH-302 as a monotherapy (Group 6); 25 mg/kg TH-302 in combination therapy with 100 mg/kg olaparib (Group 7); and 10% anhydrous ethanol+10% polyoxyethylene (35) castor oil+80% glucose injection solution D5W (pH 7.4) as a vehicle control (Group 1). The vehicle control group and the TH-302 test groups were all administered through tail vein injection. The 50 mg/kg TH-302 monotherapy group (Group 3, QD) was administered once daily for 3 consecutive days. After rest for 4 days and two weeks, the mice were again administered daily for another 3 consecutive days. TH-302 in all the 100 mg/kg (Group 4, QW), 50 mg/kg (Group 5, QW) and 25 mg/kg (Group 6, QW) TH-302 monotherapy groups and 25 mg/kg TH-302+100 mg/kg olaparib combination therapy group (Group 7) was administered once weekly for a total of three weeks. The test drug olaparib in all the groups was orally and intragastrically administered once daily for totally 30 days. Routes of administration, doses and regimens for the human pancreatic cancer Capan-1 animal model are specifically summarized in Table 12.
Tumor growth of the treatment and control groups on different days in the experiment were recorded and shown in Table 13, and corresponding tumor volume growth curves of the mice in respective groups are shown in FIG. 7. Efficacy evaluation was conducted based on relative tumor proliferation rates and relative tumor growth inhibition rates, and the results of efficacy analysis are summarized in Table 14. Body weight changes of the treatment and control groups after administration were recorded to investigate safety of the groups in the human pancreatic cancer Capan-1 subcutaneous model. Body weight change rates of the mice on Day 43 are shown in Table 15, and curves showing body weights of the treatment groups over time are plotted in FIG. 8.

[2] = Safety (body weight) in Capan-1 CDX model (3.1); format: in vivo; parameters: Body weight: unit: g; details: for Body weight / Body weight change percentage: olaparib 100 mg/kg p.o. QD×30, TH-302 75 mg/kg i.v. QW×3
Procedure: Each nude female BALB/c mouse was subcutaneously inoculated at a lower portion of the right back with 5×10^5 Capan-1 cells resuspended in a 1:1 mixture of PBS and matrigel (0.1 ml per mouse). A total of 64 female mice were inoculated. The inoculation was conducted on Jun. […] The test drug olaparib group was orally and intragastrically administered, once daily for a total of 30 days. Efficacy was evaluated based on relative tumor growth inhibition (TGI) rates (%), and safety was evaluated based on body weight changes and deaths of the animals.

[3] = Safety (body weight) in LU6429 PDX model; format: in vivo, mouse
Procedure: Protocol: Nude female Balb/c mice were subcutaneously inoculated with HuPrime® lung cancer LU6429 tumor tissue, establishing a human lung cancer subcutaneous xenograft tumor model. The mice were divided into 6 groups, 6 in each group: 50 mg/kg of the test drug olaparib as a monotherapy (Group 02); 80 mg/kg TH-302 as a monotherapy (Group 03); 40 mg/kg TH-302 as a monotherapy (Group 04); 20 mg/kg TH-302 as a monotherapy (Group 05); 40 mg/kg TH-302 in combination therapy with 50 mg/kg olaparib (Group 06); and a glucose injection solution as a vehicle control (Group 01). The vehicle control group and the TH-302 treatment groups were all administered through tail vein, once weekly for a total of 3 weeks. Olaparib was intragastrically administered once daily for totally 28 days. Routes of administration, doses and regimens for the HuPrime® lung cancer LU6429 animal model are specifically summarized in Table 16.
Tumor growth of the treatment and control groups on different days in the experiment were recorded and shown in Table 17, and corresponding tumor volume growth curves of the mice in respective groups are shown in FIG. 9. Efficacy evaluation was carried out based on relative tumor proliferation rates and relative tumor growth inhibition rates, and the results of efficacy analysis are summarized in Table 18. Body weight changes of the treatment and control groups after administration were recorded to investigate safety of the groups in the HuPrime® lung cancer LU6429 subcutaneous model. Body weight change rates of the mice on Day 25 are shown in Table 19, and curves showing body weights of the treatment groups over time are plotted in FIG. 10.

[4] = Group 3: 50 mg/kg i.v. QD, Day 43
[5] = Group 4: 100 mg/kg i.v. QW×3, Day 43
[6] = Group 5: 50 mg/kg i.v. QW×3, Day 43
[7] = Group 6: 25 mg/kg i.v. QW×3, Day 43
[8] = Group 3: 80 mg/kg i.v. QW×3, Day 25
[9] = Group 4: 40 mg/kg i.v. QW×3, Day 25
[10] = Group 5: 20 mg/kg i.v. QW×3, Day 25

SMILES: Cn1c(COP(=O)(NCCBr)NCCBr)cnc1[N+](=O)[O-] [TH-302, evofosfamide]
- Average Body Weight g (x ± S) ([1]; Group 3: 50 mg/kg i.v. QD, Day 6): 22.1 ± 0.4 g
- Average Body Weight g (x ± S) [1, 4]: 24.5 ± 0.3 g
- Body Weight Change Rate (%) [1, 4]: 10.74% ± 1.25%
- Average Body Weight g (x ± S) ([1]; Group 4: 100 mg/kg i.v. QW×3, Day 6): 21.8 ± 0.5 g
- Average Body Weight g (x ± S) [1, 5]: 24.2 ± 0.7 g
- Body Weight Change Rate (%) [1, 5]: 11.04% ± 0.91
- Average Body Weight g (x ± S) ([1]; Group 5: 50 mg/kg i.v. QW×3, Day 6): 21.9 ± 0.4 g
- Average Body Weight g (x ± S) [1, 6]: 25.1 ± 0.4 g
- Body Weight Change Rate (%) [1, 6]: 14.81% ± 0.62
- Average Body Weight g (x ± S) ([1]; Group 6: 25 mg/kg i.v. QW×3, Day 6): 22.0 ± 0.5 g
- Average Body Weight g (x ± S) [1, 7]: 26.4 ± 0.7 g
- Body Weight Change Rate (%) [1, 7]: 20.46% ± 3.51
- Body weight loss / tolerance ([1]; olaparib 100 mg/kg, TH-302 25, 50 (QD), 50 (QW), 100 mg/kg, combination 100 + 25 mg/kg): No significant mouse body weight losses
- Body weight ([2]; Day 5): 22.7
- Body weight change percentage ([2]; Day 5): 0.00%
- Body weight ([2]; Day 7): 22.0
- Body weight change percentage ([2]; Day 7): −3.01%
- Body weight ([2]; Day 9): 22.7
- Body weight change percentage ([2]; Day 9): 0.18%
- Body weight ([2]; Day 12): 23.4
- Body weight change percentage ([2]; Day 12): 2.90%
- Body weight ([2]; Day 14): 23.6
- Body weight change percentage ([2]; Day 14): 3.78%
- Body weight ([2]; Day 16): 23.6
- Body weight change percentage ([2]; Day 16): 4.07%
- Body weight ([2]; Day 19): 23.8
- Body weight change percentage ([2]; Day 19): 5.01%
- Body weight ([2]; Day 21): 23.7
- Body weight change percentage ([2]; Day 21): 4.49%
- Body weight ([2]; Day 23): 23.8
- Body weight change percentage ([2]; Day 23): 4.78%
- Body weight ([2]; Day 26): 23.3
- Body weight change percentage ([2]; Day 26): 2.63%
- Body weight ([2]; Day 28): 24.1
- Body weight change percentage ([2]; Day 28): 6.22%
- Body weight ([2]; Day 30): 24.3
- Body weight change percentage ([2]; Day 30): 6.96%
- Body weight ([2]; Day 33): 24.7
- Body weight change percentage ([2]; Day 33): 8.63%
- Body weight ([2]; Day 35): 24.7
- Body weight change percentage ([2]; Day 35): 8.65%
- Body weight loss / tolerance ([2]; olaparib 100 mg/kg, TH-302 75 mg/kg, combination 100 + 75 mg/kg): No significant body weight losses; also recorded: good tolerance
- Average Body Weight g (x ± S) ([3]; Group 3: 80 mg/kg i.v. QW×3, Day 0): 21.5 ± 0.3 g
- Average Body Weight g (x ± S) [3, 8]: 23.2 ± 0.2 g
- Body Weight Change Rate (%) [3, 8]: 7.94% ± 0.76%
- Average Body Weight g (x ± S) ([3]; Group 4: 40 mg/kg i.v. QW×3, Day 0): 21.6 ± 0.2 g
- Average Body Weight g (x ± S) [3, 9]: 23.7 ± 0.4 g
- Body Weight Change Rate (%) [3, 9]: 10.01% ± 1.19%
- Average Body Weight g (x ± S) ([3]; Group 5: 20 mg/kg i.v. QW×3, Day 0): 20.8 ± 0.2 g
- Average Body Weight g (x ± S) [3, 10]: 23.2 ± 0.4 g
- Body Weight Change Rate (%) [3, 10]: 11.72% ± 1.73%
